Source: patent publication US11059842B2, “Monosaccharide amine and 3-nitro-2-phenyl-2H-chromene based inhibitors of glucose kinases” (UNIVERSITY OF SOUTH CAROLINA, priority 2019, dated 2021)
“And” between values parts separate entries of the source, which are not always exact repeats. Equal entries are not always repeated.

Assays:
[1] = target: Trypanosoma cruzi glucokinase (TcGlcK) (Trypanosoma cruzi (strain CL Brener), UniProt Q4E4E1); assay type: biochemical; settings: percentage of inhibition at 20 μM of the compound; N = 1
Method: D-Glucose was also tested as a control with alternative substrates. The protein expression work for TcGlcK and HsHxKIV were each made possible through the E. coli strain BL21(DE3) system. Purification of each enzyme was performed through cobalt-NTA chromatography followed by size-exclusion chromatography; assessment of purity was performed by SDS-PAGE. […] A general reaction scheme included a first reaction in which the monosaccharide, ATP, and Mg^2+ react with the enzyme, e.g., TcGlcK, forming a hexose-phosphate and ADP. In a second reaction, hexose-phosphate with the assistance of glucose-6-phosphate dehydrogenase (G6PDH) and NADP^+ was converted to the lactone form of the hexose-phosphate and NADPH. Fluorescence of NADPH was monitored using a fluorescence microplate reader with […] wavelengths of 340 nm and 485 nm, respectively.
Michaelis-Menten constant (KM) values, which were used as the set final assay concentrations of substrates D-glucose and ATP for the primary screens, were determined for both TcGlcK and HsHxKIV in triplicate runs. […]
The cutoff percentage was calculated by using normalized percent inhibition that took into consideration the positive and negative controls of the fluorescence readout from a fluorescence microplate reader. In addition, an unconfirmed hit was selected if the activity measurement was three standard deviations away from the mean of the positive controls.

[2] = system: T. cruzi (Tulahuen strain) infective form (trypomastigote and amastigote life stages) co-cultured in NIH-3T3 fibroblasts; test: T. cruzi infective form growth inhibition in NIH-3T3 fibroblasts; assay type: cell-based, Trypanosoma cruzi; settings: Tulahuen strain infective form in NIH-3T3 fibroblasts; N = 3 (Amphotericin B control: 6 replicates)
Method: The curve and the IC50 were calculated from measurements determined in triplicate and expressed as percent growth inhibition of the T. cruzi parasite infection of mammalian cells.
Compounds were further screened against the T. cruzi (Tulahuen strain) infective form (trypomastigote and amastigote life stages) co-cultured in NIH-3T3 fibroblasts to establish IC50 values. Assays were performed in triplicate.
The single dose in vitro study included administration of the compounds in 80 μM inhibitor concentrations (N=3). Amphotericin B was used as a control.

[3] = system: glucose-6-phosphate dehydrogenase (G6PDH); test: G6PDH confirmatory assay (coupling enzyme counter-screen); assay type: biochemical; settings: 20 μM compound; quadruplicate
Method: The 16 compounds showing substantial inhibition against TcGlcK at compound concentrations of 20 μM were then examined in a confirmatory assay in which the amino sugar analogues were at a concentration of 20 μM and were tested against the assay's only coupling enzyme, G6PDH, to verify enzyme activity; the assay was performed in quadruplicate. […] These confirmed hits included representatives from all three monosaccharide scaffolds tested (i.e., D-GlcN, D-ManN, and D-GalN).

[4] = target: Homo sapiens hexokinase IV (HsHxKIV) (Homo sapiens (Human), UniProt P35557); test: HsHxKIV enzyme-inhibition screening assay (Example 1); assay type: biochemical; settings: 20 μM compound; N = 1
Method: (§1) D-Glucose was also tested as a control with alternative substrates. The protein expression work for TcGlcK and HsHxKIV were each made possible through the E. coli strain BL21(DE3) system. Purification of each enzyme was performed through cobalt-NTA chromatography followed by size-exclusion chromatography; assessment of purity was performed by SDS-PAGE. In enzymatic assays, a time-optimum (TOPT) was determined to be 120 seconds for TcGlcK and 600 seconds for HsHxKIV; all assays were run at room temperature. A general reaction scheme included a first reaction in which the monosaccharide, ATP, and Mg^2+ react with the enzyme, e.g., TcGlcK, forming a hexose-phosphate and ADP. In a second reaction, hexose-phosphate with the assistance of glucose-6-phosphate dehydrogenase (G6PDH) and NADP^+ was converted to the lactone form of the hexose-phosphate and NADPH. Fluorescence of NADPH was monitored using a fluorescence microplate reader with […] wavelengths of 340 nm and 485 nm, respectively.
(§2) FIG. 4 and FIG. 5 present typical Michaelis-Menten enzyme kinetic plots for D-glucose. As shown, the NADP^+ to NADPH turnover rate is a function of [D-glucose] & [ATP] for TcGlcK (FIG. 4) and HsHxKIV (FIG. 5) absent inhibition. Michaelis-Menten constant (KM) values, which were used as the set final assay concentrations of substrates D-glucose and ATP for the primary screens, were determined for both TcGlcK and HsHxKIV in triplicate runs. The KM values for TcGlcK with respect to D-glucose and ATP were 0.40 mM and 0.34 mM, respectively. The KM values for HsHxKIV with respect to D-glucose and ATP were 43 mM and 0.20 mM, respectively.

T. brucei = T. brucei in vitro screen; assay type: cell-based; settings: Trypanosoma brucei; average; concentrations up to 10 μM, N=3
Method: Compounds 19-31 were screened against T. brucei. The single dose in vitro study included administration of the compounds in increasing concentrations up to 10 μM (N=3 for each compound concentration value). Media and T. bricei+0.5% SDS were used as control.

TcGlcK [5] = target: T1, TcGlcK (Trypanosoma cruzi (strain CL Brener), UniProt Q4E4E1); test: TcGlcK Michaelis-Menten kinetics and substrate range; assay type: biochemical
Method: as §1, §2
All phosphorylated hexoses were shown getting converted into their corresponding products by G6PDH, in abundant quantities through a 30-second time frame. This permitted the standard TcGlcK […] assay, which was timed for […], to be used as an assay to analyze alternative substrates.

TcGlcK [6] = target: T1, TcGlcK; test: Primary assay screen of TcGlcK, normalized percent inhibition (Example 2); assay type: biochemical; settings: triplicate
Method: (§3) Primary assay screens of TcGlcK, LbGlcK, and HsHxKIV against the 3-nitro-2-phenyl-2H-chromene-based inhibitors compound nos. 19-22 were carried out. Compound 1, Benzoyl glucosamine (BENZ-GlcN or simply “BENZ”) and carboxybenzyl glucosamine (CBZ-GlcN or simply “CBZ”) were both used as controls due to their known inhibition against TcGlcK. LbGlcK was chosen to be tested against these compounds due to its 44% protein sequence similarity to TcGlcK.
(§4) All screens were done in triplicate and were analyzed using normalized percent inhibition (NPI) calculations. NPI calculations rely on positive and negative assay controls within the screen to account for any fluctuations in the fluorescence measurements.
(§5) The NPI for a compound to be considered a “hit” against TcGlcK required a value exceeding 60.5% inhibition in the primary screen. All four compounds ([…]) qualified as hits based off of this parameter. LbGlcK required compounds to be above 12.6% inhibition in its primary screen; all four compounds were also qualified as hits.

HsHxKIV = HsHxKIV (Homo sapiens (Human), UniProt P35557); test: Primary assay screen of HsHxKIV, normalized percent inhibition (Example 2); assay type: biochemical; settings: triplicate
Method: as §3, §4, §5

T1 sequence (Q4E4E1 1-376): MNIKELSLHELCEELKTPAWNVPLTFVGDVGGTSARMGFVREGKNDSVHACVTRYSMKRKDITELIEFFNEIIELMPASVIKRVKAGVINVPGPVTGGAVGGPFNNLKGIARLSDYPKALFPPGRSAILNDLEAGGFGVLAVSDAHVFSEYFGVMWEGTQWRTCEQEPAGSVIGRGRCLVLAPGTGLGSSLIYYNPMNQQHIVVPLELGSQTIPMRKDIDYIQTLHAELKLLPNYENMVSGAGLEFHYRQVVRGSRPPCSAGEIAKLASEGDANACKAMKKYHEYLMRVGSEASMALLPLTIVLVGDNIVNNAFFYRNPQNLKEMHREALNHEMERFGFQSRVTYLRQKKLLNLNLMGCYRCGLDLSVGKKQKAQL
Chain of Trypanosoma cruzi glucokinase (TcGlcK) (Q4E4E1 1-376): as above
Chain of Homo sapiens hexokinase IV (HsHxKIV) (P35557 whole entry): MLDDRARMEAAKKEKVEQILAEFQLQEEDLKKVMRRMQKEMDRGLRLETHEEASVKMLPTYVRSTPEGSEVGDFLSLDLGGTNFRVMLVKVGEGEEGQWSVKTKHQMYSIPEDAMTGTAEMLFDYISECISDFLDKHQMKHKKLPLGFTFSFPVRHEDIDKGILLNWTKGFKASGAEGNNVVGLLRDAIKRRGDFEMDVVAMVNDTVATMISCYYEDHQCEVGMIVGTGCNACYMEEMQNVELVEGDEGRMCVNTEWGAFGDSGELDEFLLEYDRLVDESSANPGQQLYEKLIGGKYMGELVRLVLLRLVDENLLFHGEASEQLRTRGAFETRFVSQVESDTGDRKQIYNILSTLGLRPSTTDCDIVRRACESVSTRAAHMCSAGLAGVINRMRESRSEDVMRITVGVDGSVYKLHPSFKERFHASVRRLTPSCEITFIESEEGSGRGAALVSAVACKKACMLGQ
Chain of HsHxKIV (P35557 whole entry): as above

Compound | TcGlcK Inh20 (%) [1] | IC50 [2] [µM] | G6PDH Inh20 (%) [3] [%] | HsHxKIV Inh20(%) [4] [%] | further results
O=C(N[C@@H]1C(O)O[C@H](CO)[C@@H](O)[C@@H]1O)c1cccc(Br)c1 (stereo partly drawn) [Compound 8] | 35% | 38.4 ± 1.4 | 0.0 ± 0.0 | 27 | –
O=C(N[C@H]1C(O)O[C@H](CO)[C@H](O)[C@@H]1O)c1ccc(CCl)cc1 (stereo partly drawn) [Compound 15] | 27% | 37.9 ± 4.77 | – | 8 | –
O=C(N[C@H]1C(O)O[C@H](CO)[C@@H](O)[C@@H]1O)c1ccc(CCl)cc1 (stereo partly drawn) [Compound 3] | 42% | 52.9 ± 2.72 | 0.0 ± 0.0 | 35 | –
CCOc1ccc(C2Oc3c(Br)cc(Br)cc3C=C2[N+](=O)[O-])cc1OC (stereo not drawn) [Compound 28, 6,8-Dibromo-2-(4-ethoxy-3-methoxyphenyl)-3-nitro-2H-chromene] | – | – | – | – | IC50 (T. brucei): 356 nM
O=C(N[C@@H]1C(O)O[C@H](CO)[C@@H](O)[C@@H]1O)c1ccc(CCl)cc1 (stereo partly drawn) [Compound 9] | 33% | 38.4 ± 1.41 | 0.0 ± 0.0 | 28 | –
CCOc1ccc(C2Oc3c(cc(Br)cc3OC)C=C2[N+](=O)[O-])cc1OC (stereo not drawn) [Compound 29, 6-Bromo-2-(4-ethoxy-3-methoxyphenyl)-8-methoxy-3-nitro-2H-chromene] | – | – | – | – | IC50 (T. brucei): 743 nM
O=C(N[C@@H]1C(O)O[C@H](CO)[C@@H](O)[C@@H]1O)c1cc2ccccc2o1 (stereo partly drawn) [Compound 11] | 10% | 42.5 ± 6.5 | – | 12 | –
O=C(N[C@H]1C(O)O[C@H](CO)[C@H](O)[C@@H]1O)c1cc2ccccc2o1 (stereo partly drawn) [Compound 17] | 39% | 66.6 ± 13.7 | 0.0 ± 0.0 | 37 | –
O=C(N[C@H]1C(O)O[C@H](CO)[C@@H](O)[C@@H]1O)c1cccc(Br)c1 (stereo partly drawn) [Compound 2] | 57% | 66.2 ± 3.83 | 0.0 ± 0.0 | 31 | –
O=C[C@@H](O)[C@@H](O)[C@H](O)[C@H](O)CO [D-mannose] | – | – | – | – | increase of TcGlcK activity from 15 mM to 50 mM substrate (TcGlcK [5]): 2.69 fold; TcGlcK activity relative to D-glucose (100%) (TcGlcK [5]; substrate concentration 15 mM): 6.18%; TcGlcK activity relative to D-glucose (100%) (TcGlcK [5]; substrate concentration 50 mM): 16.6%
O=C(N[C@H]1C(O)O[C@H](CO)[C@H](O)[C@@H]1O)c1ccoc1 (stereo partly drawn) [Compound 18] | 56% | 36.4 ± 1.47 | 0.0 ± 0.0 | 47 | –
COc1ccc(C2Oc3ccc(Br)cc3C=C2[N+](=O)[O-])cc1OC (stereo not drawn) [Compound 26, 6-Bromo-2-(3,4-dimethoxyphenyl)-3-nitro-2H-chromene] | – | – | – | – | IC50 (T. brucei): 435 nM
O=C(N[C@H]1C(O)O[C@H](CO)[C@H](O)[C@@H]1O)c1cccc(Br)c1 (stereo partly drawn) [Compound 14] | 31% and 30.8% | 19.9 | 0.0 ± 0.0 | 30 | –
O=C(N[C@H]1C(O)O[C@H](CO)[C@H](O)[C@@H]1O)c1ccccc1 (stereo partly drawn) [Compound 13] | 59% | 55.3 ± 11.9 | 0.0 ± 0.0 | 38 | –
COc1ccc(C2Oc3c(Br)cc(Br)cc3C=C2[N+](=O)[O-])cc1OC (stereo not drawn) [Compound 27, 6,8-Dibromo-2-(3,4-dimethoxyphenyl)-3-nitro-2H-chromene] | – | – | – | – | IC50 (T. brucei): 416 nM
Cc1ccc(C(=O)N[C@H]2C(O)O[C@H](CO)[C@H](O)[C@@H]2O)o1 (stereo partly drawn) [Compound 16] | 30% | 20.2 | 0.0 ± 0.0 | 41 | –
O=C(N[C@@H]1C(O)O[C@H](CO)[C@@H](O)[C@@H]1O)c1ccoc1 (stereo partly drawn) [Compound 12] | 58% | 67.5 ± 1.75 | 0.0 ± 0.0 | 32 | –
O=C(N[C@@H]1C(O)O[C@H](CO)[C@@H](O)[C@@H]1O)c1ccccc1 (stereo partly drawn) [Compound 7] | 71% | 43.5 ± 0.68 | 0.0 ± 0.0 | 55 | –
O=C[C@H](O)[C@@H](O)[C@@H](O)[C@H](O)CO [D-galactose] | – | – | – | – | TcGlcK activity relative to D-glucose (100%) (TcGlcK [5]; substrate concentration 15 mM): 0.00%; TcGlcK activity relative to D-glucose (100%) (TcGlcK [5]; substrate concentration 50 mM): 0.00%
O=C(CO)[C@@H](O)[C@H](O)[C@H](O)CO [D-fructose] | – | – | – | – | increase of TcGlcK activity from 15 mM to 50 mM substrate (TcGlcK [5]): 2.58 fold; TcGlcK activity relative to D-glucose (100%) (TcGlcK [5]; substrate concentration 15 mM): 18.9%; TcGlcK activity relative to D-glucose (100%) (TcGlcK [5]; substrate concentration 50 mM): 48.8%
CCOc1ccc(C2Oc3ccc(Br)cc3C=C2[N+](=O)[O-])cc1OC (stereo not drawn) [Compound 23, 6-Bromo-2-(4-ethoxy-3-methoxyphenyl)-3-nitro-2H-chromene] | – | – | – | – | IC50 (T. brucei): 614 nM
C[C@@H]1[C@H](O)[C@@H](C)/C=C/C=C/C=C/C=C/C=C/C=C/C=C/[C@H](O[C@@H]2O[C@H](C)[C@@H](O)[C@H](N)[C@@H]2O)C[C@@H]2O[C@](O)(C[C@@H](O)C[C@@H](O)[C@H](O)CC[C@@H](O)C[C@@H](O)CC(=O)O[C@H]1C)C[C@H](O)[C@H]2C(=O)O [Amphotericin B, reference compound] | – | 1.08 ± 0.84 | – | – | –
CCOc1ccc(C2Oc3c(Cl)cc(Cl)cc3C=C2[N+](=O)[O-])cc1OCC (stereo not drawn) [Compound 30, 6,8-Dichloro-2-(3,4-diethoxyphenyl)-3-nitro-2H-chromene] | – | – | – | – | IC50 (T. brucei): 664 nM
O=[N+]([O-])C1=Cc2ccccc2O[C@H]1c1c(Cl)cccc1Cl [Compound 22] | – | – | – | – | NPI (%) TcGlcK (TcGlcK [6]): 69.5%; NPI (%) HsHxKIV (HsHxKIV): 66.0%
O=C(N[C@H]1C(O)O[C@H](CO)C(O)[C@@H]1O)c1ccoc1 (stereo partly drawn) [Compound 6] | 51% | 49.9 ± 2.99 | 0.0 ± 0.0 | 41 | –
COc1ccc(C2Oc3c(cc(Br)cc3OC)C=C2[N+](=O)[O-])cc1OC (stereo not drawn) [Compound 25, 6-Bromo-2-(3,4-dimethoxyphenyl)-8-methoxy-3-nitro-2H-chromene] | – | – | – | – | IC50 (T. brucei): 515 nM
